Data set [1] is described as follows: Cytotoxicity in HepG2 cells. The note with it: human. Type of data set: cell-based. As to the method: (§1) Cytotoxicity testing can be carried out according to standard methods. MDBK, PBM, HepG2, Huh7 and Vero cells were used. […]. After a three day-incubation, cell viability and mitochondrial activity are measured by adding the MTS-dye (Promega), followed by a 3 hours incubation. Afterwards the plates containing the dye are read at 490 nm. Each assay was done in triplicate. Such methodologies are well described and available from the manufacturer (Promega).

Data set [2] can be described thus: Cytotoxicity in CEM cells. The following applies: human, CEM cells.
Data set [3] is described as follows: Cytotoxicity in Vero cells. Type of data set: cell-based. The note with it: African green monkey. As to the method: as §1
Data set [4] in a line: Cytotoxicity in MDBK cells. Type of data set: cell-based. From the text: (§2) Cytotoxicity testing can be carried out according to standard methods. MDBK, PBM, HepG2, Huh7 and Vero cells were used. […]. […] Afterwards the plates containing the dye are read at 490 nm. Each assay was done in triplicate. Such methodologies are well described and available from the manufacturer (Promega).

Data set [5] has as its system BVDV. The experiment in a line: BVDV real time RT-PCR antiviral assay in MDBK cells. Type of data set: cell-based, Bovine viral diarrhea virus (BVDV), strain NADL. As to the method:
As one illustration of this method, in the case of BVDV in MDBK cells, in a first step, viral RNA is isolated from 140 μL of the cell culture supernatant by means of a commercially available column (Viral RNA extraction kit, QiaGen, CA). The viral RNA is then eluted from the column to yield a total volume of 60 μL, and subsequently amplified with a quantitative RT-PCR protocol using a suitable primer for the BVDV NADL strain. A quenched fluorescent probe molecule is hybridized to the BVDV DNA, which then undergoes exonucleolytic degradation resulting in a detectable fluorescent signal. Therefore, the RT-PCR amplified DNA was detected in real time by monitoring the presence of fluorescence signals. The TaqMan probe molecule (5′ 6-fam-[…]-tamara 3′ [Sequence ID No. 7] and primers (sense: 5′-[…]-3′ [Sequence ID No. 8]; and antisense: 5′-[…]-3′ [Sequence ID No. 9]) were designed with the aid of the Primer Express software (PE-Applied Biosystems) to be complementary to the BVDV NADL NS5B region. A total of 10 μL of RNA was analyzed in a 50 μL RT-PCR mixture. Reagents and conditions used in quantitative PCR were purchased from PE-Applied Biosystems. The standard curve that was created using the undiluted inoculum virus ranged from 6000 plaque forming units (PFU) to 0.6 PFU per RT-PCR mixture.
Maldin-Darby bovine kidney (MDBK) cells were grown and maintained in a modified eagle medium (DMEM/F12; GibcoBRL), supplemented with 10% heat inactivated horse serum at 37° C. in a humidified, 5% CO2, incubator.
Bovine viral diarrhea virus (BVDV), strain NADL, causes a cytopathogenic effect (CPE) after infection of these cells.
Cells that were not treated with a test compound were considered a negative control, while ribavirin served as a positive control. Viral RNA was extracted and analyzed by real time RT-PCR.
Controls were Ribavirin and the polyoxymetalate HPA-023 in these experiments.

Another data set in a line: in vitro. Type of data set: cell-based. The following applies: 7 days; read-out: PBMC 7 days CC50.
Description: as §2

For the next data set, the target named is human IMPDH. The experiment in a line: IMPDH inhibition (Ki). Type of data set: biochemical. The note with it: Table 2; read-out: IMPDH Ki.
Data set [6] deals with BVDV. The experiment in a line: BVDV real time RT-PCR antiviral assay in MDBK cells. Type of data set: cell-based, Bovine viral diarrhea virus (BVDV), strain NADL. The following applies: dose-response, 24 hours post-infection.
[7] abbreviates: Bovine viral diarrhea virus isolates and strains, MDBK, 22 h.

The structures appear in SMILES notation. Like-named read-outs stand apart in the source and are kept apart here.

With `NC(=O)c1ncn([C@@H]2O[C@H](CO)[C@@H](O)[C@H]2O)n1` [Ribavirin], the CC50 at 3 days in data set [1] is 80 µM; in data set [3], over 100 µM; in data set [4] (Table 1) it was 4 µM; in data set [4] (Table 2), 5 µM. Moreover, the CC50 at 7 days is 75 µM in data set [2] and over 100 µM in the data set “in vitro”. In data set [4] (24 hrs), this compound displayed a CC50 at 24 h of over 100 µM. Also, the “max log reduction Viral Load” value in the data set on BVDV [5] (BVDV real time RT-PCR, MDBK cells, after 22 hours, tested at 40 μM) is recorded as >2 (40 μM) log. In the data set on BVDV [5] (setting [7]), this compound registered an EC50 of 0.7 µM. Besides, the EC90 worked out at 5 µM in the data set with BVDV [5] (setting [7]); 2 µM in the data set with BVDV [5] (Bovine viral diarrhea virus isolates and strains, MDBK, 24 h, read-out: Antiviral (24 hrs) EC90). In addition, in the data set on BVDV [5] (MDBK CC50 24 hrs / antiviral EC90 24 hrs), the “Selectivity Index (24 hrs/24 hrs) CC50/EC90” value stood at 5. Besides, the “virus production / viral RNA versus negative control” value with BVDV [5] (MDBK cells, MOI 0.02, 22 hours, real time RT-PCR) is “almost complete absence of viral RNA”. The Ki at human IMPDH is 0.2 µM. Also, the “intracellular viral RNA reduction, relative effectiveness (FIG. 9)” value with BVDV [6] is recorded as “more effective than C2-MAD”.

For the origin of these results see US20040266723A1, “Antiviral agents for treatment of Flaviviridae infections” (priority 2000, published 2004).
